From patent US12097241B2, “Methods of treating kidney failure, and/or improving or stablizing renal function using modified relaxin polypeptides” (BRISTOL-MYERS SQUIBB COMPANY, priority 2017, dated 2024) come the findings set out here.

This assay addresses T1, human RXFP1 receptor (Homo sapiens, UniProt Q9HBX9).
T1 construct: expressed in transfected cells
T1 sequence (Q9HBX9 1-757): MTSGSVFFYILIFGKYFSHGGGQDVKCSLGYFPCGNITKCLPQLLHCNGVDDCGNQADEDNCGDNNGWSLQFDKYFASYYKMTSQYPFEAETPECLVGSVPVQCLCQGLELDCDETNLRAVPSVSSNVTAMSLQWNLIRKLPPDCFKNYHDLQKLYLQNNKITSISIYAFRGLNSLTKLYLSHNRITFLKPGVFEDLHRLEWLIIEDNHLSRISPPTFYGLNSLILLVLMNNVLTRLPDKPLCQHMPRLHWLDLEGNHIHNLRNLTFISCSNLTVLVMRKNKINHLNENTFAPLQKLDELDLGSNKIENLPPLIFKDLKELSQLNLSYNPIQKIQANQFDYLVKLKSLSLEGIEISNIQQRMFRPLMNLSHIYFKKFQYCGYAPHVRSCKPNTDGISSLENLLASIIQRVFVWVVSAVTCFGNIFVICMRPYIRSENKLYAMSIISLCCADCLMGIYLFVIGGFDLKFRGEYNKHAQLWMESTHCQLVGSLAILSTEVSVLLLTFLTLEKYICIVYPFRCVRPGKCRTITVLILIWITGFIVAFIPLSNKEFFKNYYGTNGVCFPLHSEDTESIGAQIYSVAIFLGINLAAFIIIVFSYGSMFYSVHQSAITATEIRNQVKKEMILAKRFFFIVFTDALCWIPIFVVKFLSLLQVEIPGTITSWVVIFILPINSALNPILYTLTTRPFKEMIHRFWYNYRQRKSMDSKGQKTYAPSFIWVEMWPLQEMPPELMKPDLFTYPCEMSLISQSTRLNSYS
Nature of the assay: Intracellular cAMP accumulation assay. In kind it is cell-based. (Cyclic AMP is a second messenger, typically raised through Gs and lowered through Gi signalling.)

Experimental: The intracellular cAMP accumulation assay described herein was used to assess relaxin bioactivity and potency.
CHO-K1 cells (ATCC; Cat. #CRL-9618) stably expressing the human RXFP1 receptor (locus number LOC59350) (10,000/well) were plated into 96-well plates and cultured overnight at 37° C. and 5% CO2. On the following day, the medium was removed from the wells and the cells were stimulated with the addition of ligand (relaxin polypeptide) in 50 uL buffer (1×HBSS, 5 mM HEPES (7.2), 0.5 mM IBMX, 0.1% BSA); incubation was for 10 min at 37° C. Unstimulated cells were utilized as reference controls. Reactions were terminated and cellular cAMP levels were measured using the Homogeneous Time Resolved Fluorescence (HTRF) Dynamic 2 cAMP kit (CisBio, #62AM4PEC) according to the manufacturer's protocol. Plates were analyzed using an EnVision 2104 Multilablel Reader (PerkinElmer). Signal was expressed in terms of the ratio of fluorescence intensity @ 665 nm/fluorescence intensity @620 nm×10,000. The concentration of cAMP in the sample was determined by comparison with standard curves generated from known concentrations of cAMP. The potency of each relaxin was determined using a ten-point concentration response curves which was performed in duplicate. The data were analyzed using Microsoft Excel, Version 2013 Xlfit software. Effective concentration 50 (EC50) values, the point at which the response was one-half maximal, were calculated using a four-parameter logistic equation that allowed for a variable-slope (Table 3).

In turn, `CC[C@H](C)[C@@H]1NC(=O)[C@H](C)NC(=O)[C@H]([C@@H](C)CC)NC(=O)[C@H](CCC(N)=O)NC(=O)[C@H](C)NC(=O)[C@H](CCCNC(=N)N)NC(=O)[C@H](C(C)C)NC(=O)[C@H](CC(C)C)NC(=O)[C@H](CCC(=O)O)NC(=O)[C@H](CCCNC(=N)N)NC(=O)CNC(=O)[C@@H](NC(=O)[C@H](CC(C)C)NC(=O)[C@H](CCCCN)NC(=O)[C@@H](NC(=O)[C@@H](NC(=O)[C@H](CCC(=O)O)NC(=O)[C@H](CCC(=O)O)NC(=O)[C@H](CCSC)NC(=O)[C@H](Cc2c[nH]c3ccccc23)NC(=O)[C@H](CO)NC(=O)[C@H](C)N)C(C)C)[C@@H](C)CC)CSSC[C@@H]2NC(=O)[C@@H](NC(=O)[C@H](CCCCN)NC(=O)[C@H](CC(N)=O)NC(=O)[C@H](C)NC(=O)[C@H](CC(C)C)NC(=O)[C@H](C)NC(=O)[C@H](CO)NC(=O)[C@H](Cc3ccc(O)cc3)NC(=O)[C@H](CC(C)C)NC(=O)[C@@H](N)Cc3ccc(/C(C)=N/OCCNC(=O)[C@H](CCCCN)NC(=O)CNC(=O)CNC(=O)CNC(=O)[C@H](CO)NC(=O)CC[C@H](NC(=O)CCCCCCCCCCCCCC(=O)O)C(=O)O)cc3)CSSC[C@H](NC(=O)CNC(=O)[C@H](C(C)C)NC(=O)[C@H](Cc3c[nH]cn3)NC2=O)C(=O)N[C@@H]([C@@H](C)O)C(=O)N[C@@H](CCCCN)C(=O)N[C@@H](CCCNC(=N)N)C(=O)N[C@@H](CO)C(=O)N[C@@H](CC(C)C)C(=O)N[C@@H](C)C(=O)N[C@@H](CCCNC(=N)N)C(=O)N[C@@H](Cc2ccccc2)C(=O)N[C@H](C(=O)O)CSSC[C@@H](C(=O)NCC(=O)N[C@@H](CCSC)C(=O)N[C@@H](CO)C(=O)N[C@H](C(=O)N[C@@H](Cc2c[nH]c3ccccc23)C(=O)N[C@@H](CO)C(=O)O)[C@@H](C)O)NC1=O` [AQ1-KGGGS-Glu^γ-C14-COOH] gave an EC50 of 0.34 nM.

With `CCCCCCCCCCCCCCC(=O)N[C@@H](CCC(=O)N[C@@H](CCC(=O)O)C(=O)N[C@@H](CCC(=O)O)C(=O)N[C@@H](CCC(=O)O)C(=O)N[C@@H](CCC(=O)O)C(=O)N1CCC[C@H]1C(=O)N[C@@H](CCC(=O)O)C(=O)N[C@@H](CCC(=O)O)C(=O)N[C@@H](CCC(=O)O)C(=O)N[C@@H](CCC(=O)O)C(=O)N1CCC[C@H]1C(=O)N[C@@H](CCC(=O)O)C(=O)N[C@@H](CCC(=O)O)C(=O)N[C@@H](CCC(=O)O)C(=O)N[C@@H](CCC(=O)O)C(=O)N1CCC[C@H]1C(=O)N[C@@H](CCC(=O)O)C(=O)N[C@@H](CCC(=O)O)C(=O)N[C@@H](CCC(=O)O)C(=O)N[C@@H](CCC(=O)O)C(=O)NCCON=C(C)c1ccc(C[C@H](N)C(=O)N[C@@H](CC(C)C)C(=O)N[C@@H](Cc2ccc(O)cc2)C(=O)N[C@@H](CO)C(=O)N[C@@H](C)C(=O)N[C@@H](CC(C)C)C(=O)N[C@@H](C)C(=O)N[C@@H](CC(N)=O)C(=O)N[C@@H](CCCCN)C(=O)N[C@H]2CSSC[C@@H]3NC(=O)CNC(=O)[C@H](C(C)C)NC(=O)[C@H](Cc4c[nH]cn4)NC(=O)[C@H](CSSC[C@H](NC(=O)[C@H](CC(C)C)NC(=O)[C@H](CCCCN)NC(=O)[C@@H](NC(=O)[C@@H](NC(=O)[C@H](CCC(=O)O)NC(=O)[C@H](CCC(=O)O)NC(=O)[C@H](CCSC)NC(=O)[C@H](Cc4c[nH]c5ccccc45)NC(=O)[C@H](CO)NC(=O)[C@H](C)N)C(C)C)[C@@H](C)CC)C(=O)NCC(=O)N[C@@H](CCCNC(=N)N)C(=O)N[C@@H](CCC(=O)O)C(=O)N[C@@H](CC(C)C)C(=O)N[C@@H](C(C)C)C(=O)N[C@@H](CCCNC(=N)N)C(=O)N[C@@H](C)C(=O)N[C@@H](CCC(N)=O)C(=O)N[C@@H]([C@@H](C)CC)C(=O)N[C@@H](C)C(=O)N[C@@H]([C@@H](C)CC)C(=O)N[C@H](C(=O)NCC(=O)N[C@@H](CCSC)C(=O)N[C@@H](CO)C(=O)N[C@H](C(=O)N[C@@H](Cc4c[nH]c5ccccc45)C(=O)N[C@@H](CO)C(=O)O)[C@@H](C)O)CSSC[C@@H](C(=O)O)NC(=O)[C@H](Cc4ccccc4)NC(=O)[C@H](CCCNC(=N)N)NC(=O)[C@H](C)NC(=O)[C@H](CC(C)C)NC(=O)[C@H](CO)NC(=O)[C@H](CCCNC(=N)N)NC(=O)[C@H](CCCCN)NC(=O)[C@H]([C@@H](C)O)NC3=O)NC2=O)cc1)C(=O)O` [AQ1-EEEEPEEEEPEEEEPEEEE-Glu^γ-C14-CH3], the 50% effective concentration (EC50) worked out at 0.33 nM.

On to `CCCCCCCCCCCCCCCC(=O)N[C@@H](CCC(=O)N[C@@H](CCC(=O)O)C(=O)N[C@@H](CCC(=O)O)C(=O)N[C@@H](CCC(=O)O)C(=O)N[C@@H](CCC(=O)O)C(=O)N1CCC[C@H]1C(=O)N[C@@H](CCC(=O)O)C(=O)N[C@@H](CCC(=O)O)C(=O)N[C@@H](CCC(=O)O)C(=O)N[C@@H](CCC(=O)O)C(=O)N1CCC[C@H]1C(=O)N[C@@H](CCC(=O)O)C(=O)N[C@@H](CCC(=O)O)C(=O)N[C@@H](CCC(=O)O)C(=O)N[C@@H](CCC(=O)O)C(=O)N1CCC[C@H]1C(=O)N[C@@H](CCC(=O)O)C(=O)N[C@@H](CCC(=O)O)C(=O)N[C@@H](CCC(=O)O)C(=O)N[C@@H](CCC(=O)O)C(=O)NCCON=C(C)c1ccc(C[C@H](N)C(=O)N[C@@H](CC(C)C)C(=O)N[C@@H](Cc2ccc(O)cc2)C(=O)N[C@@H](CO)C(=O)N[C@@H](C)C(=O)N[C@@H](CC(C)C)C(=O)N[C@@H](C)C(=O)N[C@@H](CC(N)=O)C(=O)N[C@@H](CCCCN)C(=O)N[C@H]2CSSC[C@@H]3NC(=O)CNC(=O)[C@H](C(C)C)NC(=O)[C@H](Cc4c[nH]cn4)NC(=O)[C@H](CSSC[C@H](NC(=O)[C@H](CC(C)C)NC(=O)[C@H](CCCCN)NC(=O)[C@@H](NC(=O)[C@@H](NC(=O)[C@H](CCC(=O)O)NC(=O)[C@H](CCC(=O)O)NC(=O)[C@H](CCSC)NC(=O)[C@H](Cc4c[nH]c5ccccc45)NC(=O)[C@H](CO)NC(=O)[C@H](C)N)C(C)C)[C@@H](C)CC)C(=O)NCC(=O)N[C@@H](CCCNC(=N)N)C(=O)N[C@@H](CCC(=O)O)C(=O)N[C@@H](CC(C)C)C(=O)N[C@@H](C(C)C)C(=O)N[C@@H](CCCNC(=N)N)C(=O)N[C@@H](C)C(=O)N[C@@H](CCC(N)=O)C(=O)N[C@@H]([C@@H](C)CC)C(=O)N[C@@H](C)C(=O)N[C@@H]([C@@H](C)CC)C(=O)N[C@H](C(=O)NCC(=O)N[C@@H](CCSC)C(=O)N[C@@H](CO)C(=O)N[C@H](C(=O)N[C@@H](Cc4c[nH]c5ccccc45)C(=O)N[C@@H](CO)C(=O)O)[C@@H](C)O)CSSC[C@@H](C(=O)O)NC(=O)[C@H](Cc4ccccc4)NC(=O)[C@H](CCCNC(=N)N)NC(=O)[C@H](C)NC(=O)[C@H](CC(C)C)NC(=O)[C@H](CO)NC(=O)[C@H](CCCNC(=N)N)NC(=O)[C@H](CCCCN)NC(=O)[C@H]([C@@H](C)O)NC3=O)NC2=O)cc1)C(=O)O` [AQ1-EEEEPEEEEPEEEEPEEEE-Glu^γ-C15-CH3], for which it took 0.34 nM to reach a half-maximal effect (EC50).

Usually EC50 stands for the concentration at which the effect is half-maximal. Lower therefore signals an effect from little substance.
